Results published in PubChem BioAssay AID248 (DTP/NCI, 2004).
Several values for one entry are separate records, joined by “and”; a condition that tells them apart may be missing. Identical values can stand only once. Toxic doses and inconclusive results are not listed. Rule as the data show it: active = T/C of 150% or more; inactive = T/C below 125%.

Test system: L1210 leukemia ip in BDF1 mice, survival T/C
Assay: NCI In Vivo Anticancer Drug Screen. Data for tumor model L1210 Leukemia (intraperitoneal) in B6D2F1 (BDF1) mice
Conditions: endpoint: mean survival time, higher = longer survival
Method in brief: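 In this screen, tumor-bearing mice given compound are compared to those given vehicle, and their survival values are reported as a treated-to-control quotient.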

[1] = dose: 50.0 mg/kg/injection, schedule: Q01DX009 (ip), vehicle: saline with Tween-80
[2] = dose: 100.0 mg/kg/injection, schedule: Q01DX009 (ip), vehicle: saline with Tween-80
[3] = dose: 200.0 mg/kg/injection, schedule: Q01DX009 (ip), vehicle: saline with Tween-80
[4] = dose: 100.0 mg/kg/injection, schedule: Q04DX002 (ip), vehicle: Klucel (hydroxypropylcellulose) (HPC)
[5] = dose: 200.0 mg/kg/injection, schedule: Q04DX002 (ip), vehicle: Klucel (hydroxypropylcellulose) (HPC)
[6] = dose: 400.0 mg/kg/injection, schedule: Q04DX002 (ip), vehicle: Klucel (hydroxypropylcellulose) (HPC)
[7] = dose: 100.0 mg/kg/injection, schedule: Q04DX003 (ip), vehicle: saline with Tween-80
[8] = dose: 100.0 mg/kg/injection, schedule: Q01DX009 (ip), vehicle: saline
[9] = dose: 200.0 mg/kg/injection, schedule: Q01DX009 (ip), vehicle: saline
[10] = dose: 100.0 mg/kg/injection, schedule: Q01DX001 (ip), vehicle: saline
[11] = dose: 200.0 mg/kg/injection, schedule: Q01DX001 (ip), vehicle: saline
[12] = dose: 400.0 mg/kg/injection, schedule: Q01DX001 (ip), vehicle: saline
[13] = dose: 100.0 mg/kg/injection, schedule: Q04DX003 (ip), vehicle: saline
[14] = dose: 200.0 mg/kg/injection, schedule: Q04DX003 (ip), vehicle: saline
[15] = dose: 100.0 mg/kg/injection, schedule: Q04DX003 (ip), vehicle: Klucel (hydroxypropylcellulose) (HPC)
[16] = dose: 200.0 mg/kg/injection, schedule: Q04DX003 (ip), vehicle: Klucel (hydroxypropylcellulose) (HPC)
[17] = dose: 400.0 mg/kg/injection, schedule: Q04DX003 (ip), vehicle: Klucel (hydroxypropylcellulose) (HPC)
[18] = dose: 100.0 mg/kg/injection, schedule: Q01DX009 (ip), vehicle: Klucel (hydroxypropylcellulose) (HPC)
[19] = dose: 200.0 mg/kg/injection, schedule: Q01DX009 (ip), vehicle: Klucel (hydroxypropylcellulose) (HPC)
[20] = dose: 400.0 mg/kg/injection, schedule: Q01DX009 (ip), vehicle: Klucel (hydroxypropylcellulose) (HPC)
[21] = dose: 50.0 mg/kg/injection, schedule: Q01DX009 (ip), vehicle: Klucel (hydroxypropylcellulose) (HPC)

Measured: T/C

Cc1cccc(S(=O)(=O)F)c1
inactive: [1] 91 % of control | [2] 100 % of control | dose: 100.0 mg/kg/injection, schedule: Q04DX003 (ip), vehicle: acetone 101 % of control | [3] 88 % of control | dose: 200.0 mg/kg/injection, schedule: Q04DX003 (ip), vehicle: acetone 97 % of control

Oc1cccc(-c2cc3c(O)ccc(O)c3[nH]2)c1
inactive: [4] 86 % of control | [5] 99 % of control | [6] 91 % of control

COc1ccc(N=NNc2ccc(OC)cc2)cc1
inactive: dose: 6.25 mg/kg/injection, schedule: Q01DX009 (ip), vehicle: saline with Tween-80 101 % of control | dose: 12.5 mg/kg/injection, schedule: Q01DX009 (ip), vehicle: saline with Tween-80 102 % of control | dose: 12.5 mg/kg/injection, schedule: Q04DX003 (ip), vehicle: saline with Tween-80 97 % of control | dose: 25.0 mg/kg/injection, schedule: Q01DX009 (ip), vehicle: saline with Tween-80 98 % of control and 90 % of control | dose: 25.0 mg/kg/injection, schedule: Q04DX003 (ip), vehicle: saline with Tween-80 95 % of control | dose: 50.0 mg/kg/injection, schedule: Q04DX003 (ip), vehicle: saline with Tween-80 97 % of control | [7] 98 % of control

Cc1c(-c2ccccc2)cc(O)cc1-c1ccccc1
inactive: dose: 25.0 mg/kg/injection, schedule: Q01DX009 (ip), vehicle: saline 98 % of control | dose: 50.0 mg/kg/injection, schedule: Q01DX009 (ip), vehicle: saline 98 % of control | [8] 105 % of control | [9] 100 % of control

COC(=O)C(OC)(OC)C(OC)OC
inactive: [10] 97 % of control | [11] 103 % of control | [12] 106 % of control

Cc1ccc(NC(=O)CI)cc1
inactive: dose: 50.0 mg/kg/injection, schedule: Q04DX002 (ip), vehicle: other 100 % of control

CN1CSCC1C(=O)O (stereo not given)
inactive: [13] 94 % of control | [14] 96 % of control

COc1cc(Br)c(CC2=[N+](C)CCc3cc(OC)c(OCc4ccccc4)cc32)cc1OC
inactive: [7] 98 % of control | dose: 200.0 mg/kg/injection, schedule: Q04DX003 (ip), vehicle: saline with Tween-80 101 % of control | dose: 400.0 mg/kg/injection, schedule: Q04DX003 (ip), vehicle: saline with Tween-80 101 % of control

CCOC(=O)C1(C(=O)OCC)CC(C)C(=O)N1c1ccccc1OC (stereo not given)
inactive: [4] 100 % of control | [5] 89 % of control | [6] 100 % of control

O=C1OC(c2ccccc2)=C/C1=C/c1ccccc1O
inactive: [1] 95 % of control | [2] 101 % of control | [3] 96 % of control

COc1ccc2c(n1)Sc1c(Cl)nc(Cl)nc1N2
inactive: dose: 100.0 mg/kg/injection, schedule: Q01DX001 (ip), vehicle: Klucel (hydroxypropylcellulose) (HPC) 95 % of control | dose: 200.0 mg/kg/injection, schedule: Q01DX001 (ip), vehicle: Klucel (hydroxypropylcellulose) (HPC) 93 % of control | dose: 400.0 mg/kg/injection, schedule: Q01DX001 (ip), vehicle: Klucel (hydroxypropylcellulose) (HPC) 98 % of control

CN(C)Cc1cccc(-c2ccccc2)c1O
inactive: [8] 107 % of control | [15] 95 % of control | [13] 100 % of control | [9] 107 % of control | [16] 98 % of control | [14] 100 % of control | dose: 400.0 mg/kg/injection, schedule: Q01DX009 (ip), vehicle: saline 103 % of control | [17] 98 % of control | dose: 400.0 mg/kg/injection, schedule: Q04DX003 (ip), vehicle: saline 100 % of control

COC(=O)C1(C)COP(=O)(Nc2ccc(Br)cc2)OC1 (stereo not given)
inactive: [10] 96 % of control | [11] 86 % of control | [12] 91 % of control

COC(=O)C1=CCN(C)CC1
inactive: [10] 93 % of control | [11] 101 % of control | [12] 93 % of control

O=C(Cc1cccc([N+](=O)[O-])c1)Nc1ccccc1
inactive: [18] 91 % of control | [15] 96 % of control | [19] 98 % of control | [16] 96 % of control | [20] 93 % of control | [17] 102 % of control

NC1CCc2ccccc2-c2ccccc21 (stereo not given)
inactive: dose: 10.0 mg/kg/injection, schedule: Q01DX001 (ip), vehicle: saline 101 % of control | dose: 20.0 mg/kg/injection, schedule: Q01DX001 (ip), vehicle: saline 108 % of control | dose: 40.0 mg/kg/injection, schedule: Q01DX001 (ip), vehicle: saline 101 % of control

Cc1ccn2c(=O)c(CCBr)c(C)nc2c1
inactive: dose: 4.7 mg/kg/injection, schedule: Q01DX009 (ip), vehicle: saline 101 % of control | dose: 9.4 mg/kg/injection, schedule: Q01DX009 (ip), vehicle: saline 100 % of control | dose: 18.8 mg/kg/injection, schedule: Q01DX009 (ip), vehicle: saline 91 % of control | dose: 18.8 mg/kg/injection, schedule: Q04DX003 (ip), vehicle: saline 94 % of control

CC(=O)NCCCOc1ccc(N)cc1
inactive: [10] 96 % of control | [11] 102 % of control | [12] 105 % of control

CCOC(=O)CC(C(=O)OCC)c1nc2ccccc2[nH]c1=O (stereo not given)
inactive: [21] 93 % of control and 113 % of control | [18] 101 % of control and 90 % of control | [19] 93 % of control and 103 % of control

Cc1cc(C)cc(OCC(=O)O)c1
inactive: [15] 95 % of control | [16] 90 % of control | [17] 106 % of control

COc1cc(/C=N/O)cc(I)c1O
inactive: [18] 104 % of control | [19] 101 % of control | [20] 101 % of control

O=C(CSc1cc(Cl)c(Cl)cc1Cl)Nc1cccc(Cl)c1
inactive: dose: 100.0 mg/kg/injection, schedule: Q01DX001 (ip), vehicle: saline with Tween-80 95 % of control | dose: 200.0 mg/kg/injection, schedule: Q01DX001 (ip), vehicle: saline with Tween-80 98 % of control | dose: 400.0 mg/kg/injection, schedule: Q01DX001 (ip), vehicle: saline with Tween-80 90 % of control

Cc1ccc(/C=N/NC(=O)c2ccncc2)cc1
inactive: dose: 25.0 mg/kg/injection, schedule: Q01DX009 (ip), vehicle: Klucel (hydroxypropylcellulose) (HPC) 94 % of control | [21] 96 % of control | [18] 94 % of control and 96 % of control

CC(C)CN=C(N)N=C(N)N
inactive: dose: 50.0 mg/kg/injection, schedule: Q01DX009 (ip), vehicle: water 95 % of control | dose: 50.0 mg/kg/injection, schedule: Q04DX003 (ip), vehicle: water 102 % of control | dose: 100.0 mg/kg/injection, schedule: Q01DX001 (ip), vehicle: water 96 % of control | dose: 100.0 mg/kg/injection, schedule: Q01DX009 (ip), vehicle: water 97 % of control | dose: 100.0 mg/kg/injection, schedule: Q04DX003 (ip), vehicle: water 104 % of control | dose: 200.0 mg/kg/injection, schedule: Q01DX001 (ip), vehicle: water 103 % of control | dose: 200.0 mg/kg/injection, schedule: Q04DX003 (ip), vehicle: water 107 % of control
